The record followed here is PubChem BioAssay (NCI).

Holding throughout (assay): NCI tumour cell line growth inhibition, 48 h
Experiment [1] relates to DLD-1 colon.
Experiment [2] relates to DMS 114 small cell lung.
The subject of experiment [3] is DMS 273 small cell lung.
Experiment [4] has as its system KM20L2 colon.
Experiment [5] deals with LXFL 529 NSCLC.
The subject of experiment [6] is RXF-631 renal.
Experiment [7] concerns XF 498 CNS.
In experiment [8] the test system is P388 leukemia.
Experiment [9] relates to P388/ADR leukemia.
Experiment [10] relates to SN12K1 renal.

“And” between values parts separate entries of the source, which are not always exact repeats. Equal entries are not always repeated.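 Each compound was tested at five concentrations against cells in 96-well plates for 48 hours. GI50: concentration for 50% inhibition of growth. Definition used: TGI = concentration required for complete inhibition of growth.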

Regarding `COc1cc2c(cc1O)[C@H](C)C(c1ccc(Cl)cc1)O2` (stereo partly specified), the TGI in experiment [1] came to 79.6 µM; in [2], 30.8 µM; in experiment [3] it was 34.5 µM; in experiment [4], 66.2 µM; in experiment [5], 34.7 µM; in [6], 50.5 µM. For the same molecule, in experiment [7], the TGI amounted to 29.4 µM.
Regarding `COC(=O)/C(=C/c1ccc(OC)cc1)C(C(=O)O)=C(C)C`, the TGI in experiment [1], in experiment [2], in experiment [3], in [4] and in [5] was above 100 µM in each case.
As for `O=C(CCN1CCCCC1CCO)Nc1ccc2c(c1)C(=O)c1ccc(NC(=O)CCN3CCCCC3CCO)cc1C2=O` (stereo unspecified), the TGI was 14.9 µM in experiment [1]; 14.7 µM in experiment [2]; 12.5 µM in experiment [3]; 38 µM in [4]; 5.65 µM in [5].
Take `CCCCOC1CC2(c3ccc(OC)cc3)C(=O)c3ccccc3N2O1` (stereo unspecified): the TGI in [2] was 99.5 µM; in [3], above 10 µM; in experiment [4], above 10 µM; in experiment [6] it was above 10 µM; in [7] it was above 10 µM.
As for `CC1=C/C(=C(\c2ccc(N(C)C)cc2)c2ccc([N+](C)(C)C)cc2)C=CC1=[N+](C)C`, the TGI in [1] was found to be 45.3 µM; in experiment [2] it was 16.1 µM; in experiment [3] it was 18.2 µM; in experiment [4], 32.8 µM; in experiment [5], 22.1 µM; in experiment [6], 21.4 µM. Further, the TGI in experiment [7] was determined as 10.1 µM.
For `C=C1CC2CC[C@@]34C[C@@H]5O[C@@H]6C(O[C@H]7CC[C@H](CC(=O)OC8[C@@H](C)C9OC%10C[C@]%11(C[C@@H]%12O[C@@]%13(C[C@@H](C)[C@@H]%12O%11)C[C@H](C)[C@@H]%11OC%12CC(C(O)CO)OC%12C[C@@H]%11O%13)OC%10CC9O[C@H]8C[C@H]8O[C@@H](CC[C@@H]1O2)C[C@@H](C)C8=C)O[C@@H]7[C@@H]6O3)C5O4` (stereo partly specified), the GI50 in experiment [1], in experiment [3], in experiment [4] and in [7] was below 0.000148 µM throughout. Besides, the TGI was above 1.48 µM in experiment [1]; 0.00428 µM and 0.0198 µM in experiment [2]; below 0.000148 µM in [3]; 0.0156 µM in experiment [8]; 0.13 µM in experiment [9]; 0.0034 µM in experiment [6]. In addition, in experiment [10], the TGI was determined as 0.0162 µM.
For the molecule `CC(C)(C)C1CC[C@H]2c3c([nH]c4ccc(Br)cc34)[C@H]3C(=O)N(c4ccccc4)C(=O)[C@H]3[C@H]2C1` (stereo partly specified), the TGI in experiment [1] was above 100 µM; in experiment [2], 69.1 µM; in experiment [3] it was 22.4 µM; in experiment [4], above 100 µM; in experiment [5] it was 31.3 µM; in experiment [6], 19.5 µM. The TGI in [7] was 38.2 µM.
For the molecule `CCCCCCC1CCC2CCCC(C)N12` (stereo unspecified), the TGI in experiment [2] is above 100 µM; in experiment [3], above 100 µM; in [4], above 100 µM; in experiment [5] it was above 10 µM; in experiment [7], 36.1 µM.
For the molecule `c1cnc2c(c1)-n1cccc1C1(CCOCC1)NN2`, the TGI in experiment [1], in [2], in experiment [3], in experiment [4], in experiment [5] and in experiment [7] was above 100 µM throughout.
For the molecule `COC1/C=C\C=C(/C)C(=O)NC2=CC(=O)C(NCCCl)=C(CC(C)CC(OC)C(O)C(C)/C=C(/C)C1OC(N)=O)C2=O` (stereo unspecified), the TGI in experiment [1] was found to be 11.6 µM; in [2], 1.6 µM; in experiment [3], 1.1 µM; in [4], 0.385 µM; in experiment [5], 13.9 µM; in experiment [7], 8.85 µM.
Take `O=C(/C=C/c1ccc(OCCCCCCCCCCOc2ccc(/C=C/C(=O)c3ccc(Cl)cc3)cc2)cc1)c1ccc(Cl)cc1`: the TGI in experiment [1], in [2], in experiment [3], in experiment [4] and in experiment [6] was above 100 µM throughout.
Consider `On1c(-c2ccccc2)c(-c2c(-c3ccccc3)n(O)c3ccccc23)c2ccccc21`, for which the TGI was above 100 µM in [1]; 66 µM in experiment [2]; above 100 µM in experiment [3]; 20 µM in experiment [5]; 71 µM in [7].
As for `O=C(NCCNCCO)N/N=C/c1cccc([N+](=O)[O-])c1`, the TGI in [1], in experiment [2], in experiment [3], in [4] and in [5] was above 100 µM each time.
For `COC(=O)OCC1OC(N2C(=O)NC(=O)C(I)C2N=[N+]=[N-])CC1OC(=O)OC` (stereo unspecified), the TGI in experiment [1], in experiment [3], in experiment [4], in experiment [5], in experiment [6] and in experiment [7] was above 100 µM each time.
Consider `O=C(NC1CCCCC1)c1c(O)[nH]c(=S)[nH]c1=O`, for which the TGI in experiment [1], in experiment [2], in experiment [4], in [5] and in experiment [6] was above 100 µM in each case.
In the case of `Oc1c(Cl)c2nccnc2c2ccccc12`, the TGI in experiment [1], in [2], in experiment [3], in experiment [4], in experiment [5] and in experiment [7] was above 100 µM each time.
